Measurements reported in US4792554A, “Pyridine compounds, pharaceutical compositions, their use in allergy therapy” (priority 1985, dated 1988).
Where a name gives a salt, the structure may show the parent alone. Read-outs that look alike come from different tables or passages of the source.

Assays:
[1] = tested on: histamine; experiment: Antagonistic action towards histamine: inhibition of histamine-induced bronchospasm in anesthetized guinea pigs (Konzett-Rössler); format: in vivo, guinea pig; conditions: Cavia porcellus, iv, read-out: Inhibitory action towards histamine (ED50)
Description: (§1) 1. Antagonistic action towards the allergy mediators (on anesthetized guinea pigs)
(§2) The test substances were administered intravenously in aqueous solution injected in a volume of 1 ml/kg.

[2] = tested on: mast cells; experiment: Passive cutaneous anaphylaxis (PCA) in the rat, inhibition of mediator release (protective effect on mast cells); format: in vivo; conditions: for inhibition in vivo at 50 mg/kg: oral dose 50 mg/kg; for inhibition in vivo at 25 mg/kg: oral dose 25 mg/kg
Text: (a) Passive cutaneous anaphylaxis (PCA) in the rat (PCA test) Passive cutaneous anaphylaxis is an IgE-mediated allergy of the immediate type (type I). In this model, antibodies bound to mast cells and basophilic granulocytes react with an intravenously administered antigen with release of excessive amount of the allergy mediators. The histamine which is released during this can be visualized by simultaneous application of Evans blue to the shaven flanks of the rats. Photometric evaluation of the color intensity was used to determine, by means of the percentage inhibition of mediator release compared with untreated control animals, the protective effect on mast cells of the compound according to the invention after oral administration.

[3] = tested on: rat peritoneal mast cells; experiment: Histamine release from isolated rat mast cells induced by calcium ionophore A 23 187; format: cell-based; conditions: for IC50: Mast cell, 0.25 h, 15 min incubation, A 23 187 10^-6 g/ml, read-out: Inhibitory action in the Ca ionophore test IC50
Description: (b) Histamine release from isolated rat mast celss induced by calcium ionophore A 23 187 […] […] For this purpose, 10^4 cells were suspended in Clicks/RPMI (50:50, vol.; supplied by Serva, Heidelberg) tissue culture medium, incubated with the test substance for 15 minutes, and then treated with calcium ionophore A 23 187 at a concentration of 10^-6 g/ml. The released histamine was determined by high-pressure liquid chromatography (HPLC). The measure used for the inhibitory action was the IC50 which represents the molar concentration (mol/l) at which the induced histamine release was decreased to one half that of cells which had not been pretreated with a product. In this context, IC50 values above 10^-5 mol/l are regarded as therapeutically irrelevant.

[4] = tested on: bradykinin; experiment: Antagonistic action towards bradykinin: inhibition of bradykinin-induced bronchospasm in anesthetized guinea pigs (Konzett-Rössler); format: in vivo, guinea pig; conditions: Cavia porcellus, iv, read-out: Inhibitory action towards bradykinin (ED50)
Description: as §1, §2

[5] = Acute toxicity, mortality within 7 days after single i.p. administration to NMRI mice; conditions: in vivo, ip, mouse i.p.
Description: The LD50 values were determined by the standard method of the mortality occurring within 7 days after a single intraperitoneal (i.p.) administration to NMRI mice (NMRI=Naval Medical Research Institute).

[6] = Anticholinergic action in the Konzett-Rössler model; format: in vivo, guinea pig
[7] = long-term therapy, state of the art; cited from earlier work
[8] = state of the art; cited from earlier work
[9] = tested on: platelet activating factor (PAF); experiment: Antagonism of PAF-induced bronchospasm in anesthetized rats; format: in vivo, rat; conditions: PAF test
Description: The compounds of the formula I and their salts additionally show a pronounced inhibitory action on platelet activating factor (PAF) and the leukotrienes, which are likewise released as spasmogenic mediators from the mast cells during the course of the immediate anaphylactic reaction. It was possible to antagonize the bronchospasm induced in anesthetized rats by administration of PAF by, for example, intravenous administration of the compound of Example 3 with a ED50 of 1-3 mg/kg. The said products of the state of the art, such as oxatomide, ketotiphen and terfenadine, have no action in this test. The contractions induced by calcium ionophore A 23 187 in isolated strips of lung and the isolated trachea of guinea pigs were inhibited by, for example, the compound of Example 3 with an IC50 of 0.1-0.3 μg/ml. Since calcium ionophore A 23 187 stimulates 5-lipoxygenase and thus promotes the formation of spasmogenic leukotrienes, a possible interpretation of the result of this experiment is that the compounds according to the invention are potent leukotriene inhibitors.

[10] = cited from earlier work
[11] = tested on: spontaneous motility of the mouse; experiment: Spontaneous motility of the mouse (central sedation); format: in vivo; conditions: oral, 1 mg/kg
[12] = tested on: histamine and leukotrienes; conditions: state of the art; cited from earlier work
[13] = tested on: mast cells; conditions: British Pat. No. 1,144,905; cited from earlier work
[14] = tested on: airway obstruction induced by histamine aerosol; experiment: Plethysmographic investigation on conscious guinea pigs with airway obstruction induced by inhalation of histamine aerosol; format: in vivo, guinea pig; conditions: oral, 0.3% strength histamine aerosol
[15] = state of the art; cited from earlier work; remark: listed apart in the source
[16] = anesthetized guinea pigs, dose reducing induced spasm to one half

SMILES	ED50 [1, 16] [mg/kg]	inhibition in vivo at 50 mg/kg ([2]; Mast cell) [%]	IC50 [3] [µM]	ED50 [4, 16] [mg/kg]	LD50 at 168 h [5] [mg/kg]	other results
Cc1cc(NCCN2CCN(C(c3ccccc3)c3ccccc3)CC2)c(C#N)c(C)[n+]1[O-] [Example 10]	0.1 to 0.3	91	< 0.01	1 to 3	75 to 150	–
CCCc1cc(NCCN2CCN(C(c3ccccc3)c3ccccc3)CC2)c([N+](=O)[O-])c(CCC)n1 [Example 12]	–	61	–	–	–	–
Cc1cc(NCCN2CCN(C(c3ccccc3)c3ccccc3)CC2)c(C(=O)O)c(C)n1.Cl.Cl.Cl.O.O [Example 5, 2,6-dimethyl-4-[(2-{4-diphenylmethyl-1-piperazinyl}-ethyl)amino]pyridine-3-carboxylic acid trihydrochloride dihydrate]	–	91	0.1	–	300 to 600	ED50 [1]: 1 to 3 mg/kg; anticholinergic action [6]: strong anticholinergic action; ED50 [4]: 3 mg/kg
CC(C)(C)c1ccc(C(O)CCCN2CCC(C(O)(c3ccccc3)c3ccccc3)CC2)cc1 (stereo not drawn) [terfenadine]	–	–	–	–	–	weight gain [7]: undesired weight gain; solubility in water [8]: insolubility in water; action on PAF / PAF-induced bronchospasm (in words) [9]: no action; sedation ([10]; in vivo): no sedative side effect
Cc1cc(N2CCSCC2)c([N+](=O)[O-])c(C)n1.Cl [4-(2,6-dimethyl-3-nitro-4-pyridyl)thiomorpholine hydrochloride, reference compound]	–	13	< 100	3.16	150 to 300	inhibition in vivo at 12.5 mg/kg ([2]; Mast cell, oral dose 12.5 mg/kg): 0%; inhibition in vivo at 25 mg/kg ([2]; Mast cell): 0%; protective effect on mast cells in PCA test (in words) ([2]; oral administration): inactive; inhibition of histamine release in the Ca ionophore test (in words) [3]: inactive
Cc1cc(NCCN2CCN(C(c3ccccc3)c3ccc(Cl)cc3)CC2)c([N+](=O)[O-])c(C)n1 (stereo not drawn) [Example 14]	1 to 3	55	1	3 to 10	150 to 300	–
Cc1cc(NCCN2CCN(C(c3ccccc3)c3ccccc3)CC2)c(C#N)c(C)n1 [Example 9]	0.3 to 1	64	0.01	3 to 10	300 to 600	–
CN1CCC(=C2c3ccccc3CC(=O)c3sccc32)CC1 [ketotifen]	–	–	–	–	–	action on PAF / PAF-induced bronchospasm (in words) [9]: no action; reduction in the spontaneous motility [11]: significant; sedation ([10]; side effect, state of the art): pronounced sedation; antagonistic properties for histamine and leukotrienes [12]: antagonistic properties for histamine and leukotrienes
Cc1cc(NCCN2CCN(C(c3ccncc3)c3ccc(Cl)cc3)CC2)c([N+](=O)[O-])c(C)n1 (stereo not drawn) [Example 16]	1	75	0.1	1	300 to 600	inhibition in vivo at 25 mg/kg ([2]; Mast cell): 46%
Cc1cc(NCCN2CCN(C(c3ccccc3)c3ccccc3)CC2)c([N+](=O)[O-])c(C)[n+]1[O-].Cl.Cl.Cl.O.O [Example 1, 2,6-Dimethyl-3-nitro-4-[(2-{4-diphenylmethyl-1-piperazinyl}ethyl)amino]pyridine 1-oxide trihydrochloride dihydrate]	–	91	0.1	–	> 150	ED50 [1]: 0.3 to 1 mg/kg; ED50 [4]: 1 to 3 mg/kg
O=[N+]([O-])c1cnccc1NCCN1CCN(C(c2ccccc2)c2ccccc2)CC1 [Example 21]	0.02	–	–	0.03	150 to 300	–
COc1ccc(CCN2CCC(Nc3nc4ccccc4n3Cc3ccc(F)cc3)CC2)cc1 [ASTEMIZOLE]	–	–	–	–	–	weight gain [7]: undesired weight gain; solubility in water [8]: insolubility in water; sedation ([10]; side effect, state of the art): no sedative side effect
Cc1cc(NCCN2CCC(=C(c3ccccc3)c3ccccc3)CC2)c([N+](=O)[O-])c(C)n1.Cl.Cl.O.O [Example 6, 2,6-dimethyl-3-nitro-4-[(2-{4-diphenylmethylene-1-piperidyl}ethyl)amino]pyridine dihydrochloride dihydrate]	–	91	–	–	600 to 1200	ED50 [1]: 1 to 3 mg/kg; ED50 [4]: 3 to 6 mg/kg
Cc1cc(NCCN2CCC(C(O)(c3ccccc3)c3ccccc3)CC2)c([N+](=O)[O-])c(C)n1 [Example 17, 4-[(2-{4-hydroxy(diphenyl)methyl-1-piperidyl}ethyl)amino]-2,6-dimethyl-3-nitropyridine dihydrochloride]	0.3	91	< 0.01	3 to 10	75 to 150	–
O=C(O)c1cc(=O)c2c(OCC(O)COc3cccc4oc(C(=O)O)cc(=O)c34)cccc2o1 [CHROMOGLICIC ACID]	–	–	–	–	–	stabilizing mast cells [13]: stabilizing mast cells
Cc1cc(N(C)CCN2CCN(C(c3ccccc3)c3ccccc3)CC2)c([N+](=O)[O-])c(C)n1 [Example 13]	1 to 3	68	< 0.01	10	150 to 300	–
Cc1cc(NCCN2CCN(C(c3ccc(F)cc3)c3ccc(F)cc3)CC2)c([N+](=O)[O-])c(C)n1 [Example 15]	1 to 3	59	0.1	3 to 6	300 to 600	–
Cc1cc(NCCN2CCN(C(c3ccccc3)c3ccccc3)CC2)c(N)c(C)n1.Cl.Cl.Cl.O.O [Example 4, 3-amino-2,6-dimethyl-4-[(2-{4-diphenylmethyl-1-piperazinyl}ethyl)amino]pyridine trihydrochloride dihydrate]	–	73	0.05	–	–	anticholinergic action [6]: strong anticholinergic action
O=c1[nH]c2ccccc2n1CCCN1CCN(C(c2ccccc2)c2ccccc2)CC1 [oxatomide]	–	–	–	–	–	action on PAF / PAF-induced bronchospasm (in words) [9]: no action; sedation ([10]; side effect, state of the art): pronounced sedation; antagonistic properties for histamine and leukotrienes [12]: antagonistic properties for histamine and leukotrienes; ED50 ([14]; Cavia porcellus): 25 mg/kg; time after administration to maximum effect [14]: 90 min; onset of action [15]: does not exert its action until several days have passed
Cc1cc(NCCN2CCN(Cc3ccccc3)CC2)c([N+](=O)[O-])c(C)n1 [Example 2, 4-[(2-(4-benzyl-1-piperazinyl)ethyl)amino]-2,6-dimethyl-3-nitropyridinetrihydrochloride]	–	67	10	–	–	–
Cc1cc(NCCCN2CCN(C(c3ccccc3)c3ccccc3)CC2)c([N+](=O)[O-])c(C)n1 [Example 7]	3	55	0.01	3 to 10	150 to 300	–
Cc1cc(NCCN2CCN(CC=Cc3ccccc3)CC2)c([N+](=O)[O-])c(C)n1 [Example 8]	3	60	0.1	3 to 10	75 to 150	–
